Assay: In-vivo toxicity in mice (LD50)
Parameters: species or system Balb/c female mice
Details: for LD50: single injection, 14 days
Protocol: The in vitro activity, low toxicity, and stability in plasma and liver homogenate, supported the potential of VanQAmC10 as a candidate for the treatment of bacterial infections. The efficacy of VanQAmC10 (8) against MRSA was tested in a neutropenic mouse thigh infection model. Infection was established by injecting them with 5 × 10^5 CFU of MRSA in the thigh. 1 h and 13 h post-infection, mice were treated with 12 mg kg^−1 of vancomycin and VanQAmC10 administered intraperitoneally (Fig. 6B). The mice were sacrificed 24 h post-infection. […] In the untreated group, the bacterial load increased to 8 log CFU g^−1. […] However, treatment with VanQAmC10 reduced the bacterial load to 3.3 log CFU g^−1, which is a 1.5 log CFU g^−1 lower bacterial load than observed against vancomycin.
Table S1: Activity of VanQAmC10 in mouse plasma and liver homogenate against MRSA […]
MIC of VanQAmC10 post incubation in (μM)
Bacteria Plasma Liver homogenate Media […]
when administered subcutaneously. […]
of VanQAmC10 as compared to the previously developed molecule, VanQC14.3 This reduced toxicity of VanQAmC10 can be attributed to the presence of the amide spacer between the cationic moiety and the alkyl chain as mentioned in the previous section.
Table S2 In-vivo toxicity (LD50 values) of VanQAmC10 by various modes of administration Mode of administration LD 50 (mg/kg)
All reagents were purchased from Sigma-Aldrich and Spectrochem and used without further purification. All the solvents of reagent grade were purchased from Spectrochem and SD Fine.
Chloroform for column chromatography was purchased from SD Fine chemicals and distilled prior to use. HPLC grade acetonitrile was purchased from Spectrochem. Analytical thin layer chromatography (TLC) was performed on E. Merck TLC plates pre-coated with silica gel 60 F254 (250 μm thickness). Vancomycin derivative was purified by reverse phase HPLC using 0.1 % trifluoroacetic acid (TFA) in water/acetonitrile (0-100 %) as mobile phase. HPLC […]
The doses for administration, were given modified OECD guidelines. LD50 was determined using Spearman-Karber method. […]

## CCCCCCCCCCNC(=O)C[N+](C)(C)CCCNC(=O)C1NC(=O)C2NC(=O)C(NC(=O)C3NC(=O)C(CC(N)=O)NC(=O)C(NC(=O)C(CC(C)C)NC)C(O)c4ccc(c(Cl)c4)Oc4cc3cc(c4OC3OC(CO)C(O)C(O)C3OC3CC(C)(N)C(O)C(C)O3)Oc3ccc(cc3Cl)C2O)c2ccc(O)c(c2)-c2c(O)cc(O)cc21 (stereo not drawn) [VanQAmC10 (8)]
intraperitoneal
  dose well tolerated, all mice survived: 130 mg/kg
  LD50: greater than 130 mg/kg
subcutaneous
  LD50: greater than 160 mg kg^−1
